This passage reports IC50 results from patent publication US11999733B2, “Diacylglycerol kinase modulating compounds” (Gilead Sciences, Inc., priority 2021, dated 2024).

This test has as its target human DGKα (Homo sapiens, UniProt P23743). Description: biochemical.
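Note: recombinant enzyme acting on 18:1 DAG micelles (with POPS and octylglucoside) plus 200 µM ATP, 1 h at 25 °C, ADP generated read out by ADP-Glo luminescence.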

Chain of human DGKα (P23743 whole entry): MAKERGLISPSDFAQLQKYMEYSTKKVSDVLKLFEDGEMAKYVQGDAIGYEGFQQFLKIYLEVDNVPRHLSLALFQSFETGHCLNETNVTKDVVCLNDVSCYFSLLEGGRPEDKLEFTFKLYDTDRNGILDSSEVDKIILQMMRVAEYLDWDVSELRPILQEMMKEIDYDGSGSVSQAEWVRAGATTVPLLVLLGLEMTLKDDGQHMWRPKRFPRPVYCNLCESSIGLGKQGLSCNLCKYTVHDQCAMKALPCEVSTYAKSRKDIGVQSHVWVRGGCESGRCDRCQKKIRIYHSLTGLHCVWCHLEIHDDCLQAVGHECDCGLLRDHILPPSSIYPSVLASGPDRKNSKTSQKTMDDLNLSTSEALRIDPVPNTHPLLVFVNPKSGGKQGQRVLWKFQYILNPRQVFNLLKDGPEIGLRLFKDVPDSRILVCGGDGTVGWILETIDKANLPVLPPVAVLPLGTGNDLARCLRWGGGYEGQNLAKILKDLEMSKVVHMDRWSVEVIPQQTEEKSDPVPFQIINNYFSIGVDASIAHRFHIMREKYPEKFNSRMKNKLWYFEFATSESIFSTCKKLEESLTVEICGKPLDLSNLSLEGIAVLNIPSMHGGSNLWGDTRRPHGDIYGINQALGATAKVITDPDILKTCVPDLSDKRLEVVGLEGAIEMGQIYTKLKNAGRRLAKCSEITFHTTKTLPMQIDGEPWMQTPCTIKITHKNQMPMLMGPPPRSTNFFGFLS

`Cn1nnc2nc(N3CCCc4c(C#CC(C)(C)C#N)cncc43)c3c(F)cccc3c21` [Example 30, 4-(1-(6-fluoro-1-methyl-1H-[1,2,3]triazolo[4,5-c]isoquinolin-5-yl)-1,2,3,4-tetrahydro-1,7-naphthyridin-5-yl)-2,2-dimethylbut-3-ynenitrile] showed an IC50 of 160 nM. `Cn1nnc2nc(N3CCCCc4c(C#CC(C)(C)O)cccc43)c3c(F)cncc3c21` [Example 15, 4-(1-(6-fluoro-1-methyl-1H-[1,2,3]triazolo[4,5-c][2,6]naphthyridin-5-yl)-2,3,4,5-tetrahydro-1H-benzo[b]azepin-6-yl)-2-methylbut-3-yn-2-ol] returned an IC50 of 5.42 nM. On to `CCC1(C#Cc2cccc3c2COCCN3c2nc3nnn(C)c3c3cncc(F)c23)COC1` [Example 3, 6-((3-ethyloxetan-3-yl)ethynyl)-1-(6-fluoro-1-methyl-1H-[1,2,3]triazolo[4,5-c][2,6]naphthyridin-5-yl)-1,2,3,5-tetrahydrobenzo[e][1,4]oxazepine], for which the half-inhibitory concentration (IC50) was 2.73 nM. `Cn1nnc2nc(N(CC(F)F)c3ccnc(C#CC4(C)CC4)c3)c3cc(F)ccc3c21` [Example 25, N-(2,2-difluoroethyl)-7-fluoro-1-methyl-N-(2-((1-methylcyclopropyl)ethynyl)pyridin-4-yl)-1H-[1,2,3]triazolo[4,5-c]isoquinolin-5-amine] came in with an IC50 of 39.2 nM. In turn, `Cn1nnc2nc(N3CCCc4c(C#CC(C)(C)C#N)cccc43)c3c(F)cncc3c21` [Example 5, 4-(1-(6-fluoro-1-methyl-1H-[1,2,3]triazolo[4,5-c][2,6]naphthyridin-5-yl)-1,2,3,4-tetrahydroquinolin-5-yl)-2,2-dimethylbut-3-ynenitrile] came in with an IC50 of 20.8 nM. The compound `Cn1nnc2nc(N(CC(F)F)c3cc(F)cc(C#CC(C)(C)O)c3)c3ccc(Cl)cc3c21` [Example 51, 4-(3-((8-chloro-1-methyl-1H-[1,2,3]triazolo[4,5-c]isoquinolin-5-yl)(2,2-difluoroethyl)amino)-5-fluorophenyl)-2-methylbut-3-yn-2-ol] returned an IC50 of 22.5 nM. To `Cn1nnc2nc(N(CC(F)F)c3cc(F)cc(C#CC4(C(F)(F)F)CC4)c3)c3c(F)cccc3c21` [Example 48, N-(2,2-difluoroethyl)-6-fluoro-N-(3-fluoro-5-((1-(trifluoromethyl)cyclopropyl)ethynyl)phenyl)-1-methyl-1H-[1,2,3]triazolo[4,5-c]isoquinolin-5-amine] belongs 64.9 nM; to `Cn1nnc2nc(N(CC(F)F)c3ccnc(C#CC4(C)CC4)c3)c3c(F)c(F)ccc3c21` [Example 17, N-(2,2-difluoroethyl)-6,7-difluoro-1-methyl-N-(2-((1-methylcyclopropyl)ethynyl)pyridin-4-yl)-1H-[1,2,3]triazolo[4,5-c]isoquinolin-5-amine], 61.8 nM. The value for `Cn1nnc2nc(N3CCCc4c(C#CC5(C(F)(F)F)CC5)cccc43)c3ccc(Cl)cc3c21` [Example 50, 8-chloro-1-methyl-5-(5-((1-(trifluoromethyl)cyclopropyl)ethynyl)-3,4-dihydroquinolin-1(2H)-yl)-1H-[1,2,3]triazolo[4,5-c]isoquinoline] was 23.2 nM.

With `Cn1nnc2nc(N(CC(F)F)c3ccnc(C#CC4(C)CC4)c3)c3c(F)cncc3c21` [Example 19, N-(2,2-difluoroethyl)-6-fluoro-1-methyl-N-(2-((1-methylcyclopropyl)ethynyl)pyridin-4-yl)-1H-[1,2,3]triazolo[4,5-c][2,6]naphthyridin-5-amine], inhibition was half-maximal at 31.4 nM (IC50).

With `Cn1nnc2nc(N3CCCc4c(C#CC5(C)CC5)cncc43)c3cc(F)ccc3c21` [Example 22, 7-fluoro-1-methyl-5-(5-((1-methylcyclopropyl)ethynyl)-3,4-dihydro-1,7-naphthyridin-1(2H)-yl)-1H-[1,2,3]triazolo[4,5-c]isoquinoline], the IC50 is 124 nM. Consider `Cn1nnc2nc(N3CCCOc4c(C#CC(C)(C)O)cccc43)c3c(F)cncc3c21` [Example 10, 4-(5-(6-fluoro-1-methyl-1H-[1,2,3]triazolo[4,5-c][2,6]naphthyridin-5-yl)-2,3,4,5-tetrahydrobenzo[b][1,4]oxazepin-9-yl)-2-methylbut-3-yn-2-ol], for which half-maximal inhibition (IC50) was put at 13 nM. Regarding `Cn1nnc2nc(N3CCOCc4c(C#CC5(C)COC5)cccc43)c3c(F)cncc3c21` [Example 4, 1-(6-fluoro-1-methyl-1H-[1,2,3]triazolo[4,5-c][2,6]naphthyridin-5-yl)-6-((3-methyloxetan-3-yl)ethynyl)-1,2,3,5-tetrahydrobenzo[e][1,4]oxazepine], the IC50 came out at 2.26 nM. Turning to `Cn1nnc2nc(N(CC(F)F)c3cc(F)cc(C#CC(C)(C)C#N)c3)c3c(F)cncc3c21` [Example 16, 4-(3-((2,2-difluoroethyl)(6-fluoro-1-methyl-1H-[1,2,3]triazolo[4,5-c][2,6]naphthyridin-5-yl)amino)-5-fluorophenyl)-2,2-dimethylbut-3-ynenitrile], the IC50 amounted to 42.2 nM. Compound `Cn1nnc2nc(N(CC(F)F)c3ccnc(C#CC(C)(C)O)c3)c3cc(F)ccc3c21` [Example 27, 4-(4-((2,2-difluoroethyl)(7-fluoro-1-methyl-1H-[1,2,3]triazolo[4,5-c]isoquinolin-5-yl)amino)pyridin-2-yl)-2-methylbut-3-yn-2-ol] gave a half-inhibitory concentration (IC50) of 143 nM. The compound `Cn1nnc2nc(N(CC(F)F)c3cc(F)cc(C#CC(C)(C)O)c3)c3cc(F)ccc3c21` [Example 43, 4-(3-((2,2-difluoroethyl)(7-fluoro-1-methyl-1H-[1,2,3]triazolo[4,5-c]isoquinolin-5-yl)amino)-5-fluorophenyl)-2-methylbut-3-yn-2-ol] yielded a half-inhibitory concentration (IC50) of 34.1 nM. `Cn1nnc2nc(N3CCCOc4c(C#CC5(C)CC5)cccc43)c3c(F)cncc3c21` [Example 7, 5-(6-fluoro-1-methyl-1H-[1,2,3]triazolo[4,5-c][2,6]naphthyridin-5-yl)-9-((1-methylcyclopropyl)ethynyl)-2,3,4,5-tetrahydrobenzo[b][1,4]oxazepine] showed an IC50 of 11.5 nM. The value for `Cn1nnc2nc(N3CCCOc4c(C#CC(C)(C)C#N)cccc43)c3c(F)cncc3c21` [Example 8, 4-(5-(6-fluoro-1-methyl-1H-[1,2,3]triazolo[4,5-c][2,6]naphthyridin-5-yl)-2,3,4,5-tetrahydrobenzo[b][1,4]oxazepin-9-yl)-2,2-dimethylbut-3-ynenitrile] was 10.2 nM; that for `Cn1nnc2nc(N3CCOCc4c(C#CC5(C)CC5)cccc43)c3c(F)cncc3c21` [Example 11, 1-(6-fluoro-1-methyl-1H-[1,2,3]triazolo[4,5-c][2,6]naphthyridin-5-yl)-6-((1-methylcyclopropyl)ethynyl)-1,2,3,5-tetrahydrobenzo[e][1,4]oxazepine] was 8.59 nM. Turning to `Cn1nnc2nc(N(CC(F)F)c3cc(F)cc(C#CC4(C(F)(F)F)CC4)c3)c3c(F)cncc3c21` [Example 38, N-(2,2-difluoroethyl)-6-fluoro-N-(3-fluoro-5-((1-(trifluoromethyl)cyclopropyl)ethynyl)phenyl)-1-methyl-1H-[1,2,3]triazolo[4,5-c][2,6]naphthyridin-5-amine], the midpoint of inhibition, the IC50, lay at 51.6 nM. In turn, `Cn1nnc2nc(N3CCCc4c(C#CC(C)(C)O)cccc43)c3c(F)cccc3c21` [Example 45, 4-(1-(6-fluoro-1-methyl-1H-[1,2,3]triazolo[4,5-c]isoquinolin-5-yl)-1,2,3,4-tetrahydroquinolin-5-yl)-2-methylbut-3-yn-2-ol] had an IC50 of 19.4 nM. As for `Cn1nnc2nc(N3CCCc4c(C#CC(C)(C)O)cncc43)c3c(F)cncc3c21` [Example 32, 4-(1-(6-fluoro-1-methyl-1H-[1,2,3]triazolo[4,5-c][2,6]naphthyridin-5-yl)-1,2,3,4-tetrahydro-1,7-naphthyridin-5-yl)-2-methylbut-3-yn-2-ol], half-maximal inhibition (IC50) required 93 nM.

Take `Cn1nnc2nc(N(CC(F)F)c3ccnc(C#CC4(C)CC4)c3)c3c(F)cccc3c21` [Example 24, N-(2,2-difluoroethyl)-6-fluoro-1-methyl-N-(2-((1-methylcyclopropyl)ethynyl)pyridin-4-yl)-1H-[1,2,3]triazolo[4,5-c]isoquinolin-5-amine]: inhibition was half-maximal at 54.5 nM (IC50). `CCC1(C#Cc2cccc3c2OCCCN3c2nc3nnn(C)c3c3cncc(F)c23)COC1` [Example 1, 9-((3-ethyloxetan-3-yl)ethynyl)-5-(6-fluoro-1-methyl-1H-[1,2,3]triazolo[4,5-c][2,6]naphthyridin-5-yl)-2,3,4,5-tetrahydrobenzo[b][1,4]oxazepine]: half-maximal inhibition (IC50) was put at 10.5 nM.

The compound `Cn1nnc2nc(N(CC(F)F)c3cc(F)cc(C#CC(C)(C)O)c3)c3cc(F)cnc3c21` [Example 34, 4-(3-((2,2-difluoroethyl)(7-fluoro-1-methyl-1H-[1,2,3]triazolo[4,5-h][1,6]naphthyridin-5-yl)amino)-5-fluorophenyl)-2-methylbut-3-yn-2-ol] showed an IC50 of 26.1 nM. Turning to `Cn1nnc2nc(N(CC(F)F)c3ccnc(C#CC(C)(C)C#N)c3)c3c(F)cncc3c21` [Example 20, 4-(4-((2,2-difluoroethyl)(6-fluoro-1-methyl-1H-[1,2,3]triazolo[4,5-c][2,6]naphthyridin-5-yl)amino)pyridin-2-yl)-2,2-dimethylbut-3-ynenitrile], the IC50 was determined as 109 nM. For the compound `Cn1nnc2nc(N3CCCc4c(C#CC(C)(C)C#N)cccc43)c3cc(F)cnc3c21` [Example 35, 4-(1-(7-fluoro-1-methyl-1H-[1,2,3]triazolo[4,5-h][1,6]naphthyridin-5-yl)-1,2,3,4-tetrahydroquinolin-5-yl)-2,2-dimethylbut-3-ynenitrile], half-maximal inhibition (IC50) was put at 50.7 nM. The value for `Cn1nnc2nc(N3CCCc4c(C#CC5(C(F)(F)F)CC5)cccc43)c3c(F)cncc3c21` [Example 40, 6-fluoro-1-methyl-5-(5-((1-(trifluoromethyl)cyclopropyl)ethynyl)-3,4-dihydroquinolin-1(2H)-yl)-1H-[1,2,3]triazolo[4,5-c][2,6]naphthyridine] was 41.9 nM.

The term IC50 denotes the midpoint of a concentration-inhibition curve.
